Each block holds one compound with its values, some of them ahead of it.
Assays:
[1] = target: T1, Human neutrophil elastase (HNE) (Homo sapiens, UniProt P08246); test: HNE inhibition assay; assay type: biochemical
T1 sequence (P08246 30-267): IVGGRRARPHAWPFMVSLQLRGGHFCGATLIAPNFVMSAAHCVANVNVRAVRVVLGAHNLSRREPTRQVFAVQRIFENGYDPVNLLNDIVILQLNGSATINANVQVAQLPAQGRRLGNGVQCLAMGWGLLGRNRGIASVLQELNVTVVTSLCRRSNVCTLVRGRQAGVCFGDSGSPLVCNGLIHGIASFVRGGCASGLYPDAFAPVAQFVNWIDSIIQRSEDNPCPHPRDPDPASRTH

[2] = target: T2, HNE (Homo sapiens, UniProt P08246); test: HNE inhibition over time; assay type: biochemical; settings: for period of maximal HNE inhibition (during the first x h): 5 μM compound; for time to recovery of HNE activity after treatment: up to 5 μM compound
T2 sequence (P08246 30-267): T1 sequence (P08246 30-267)

[3] = target: human plasma kallikrein (Homo sapiens, UniProt P03952); test: Kallikrein inhibition; assay type: biochemical
[4] = target: human urine urokinase (Homo sapiens, UniProt P00749); test: Urokinase inhibition; assay type: biochemical
[5] = tested on: human pancreas chymotrypsin; test: Chymotrypsin inhibition; assay type: biochemical
[6] = Spontaneous hydrolysis in aqueous buffer; assay type: physicochemical; settings: 20 μM
[7] = target: human plasma thrombin (Homo sapiens, UniProt P00734); test: Thrombin inhibition; assay type: biochemical

human plasma kallikrein, sequence (P03952 20-638): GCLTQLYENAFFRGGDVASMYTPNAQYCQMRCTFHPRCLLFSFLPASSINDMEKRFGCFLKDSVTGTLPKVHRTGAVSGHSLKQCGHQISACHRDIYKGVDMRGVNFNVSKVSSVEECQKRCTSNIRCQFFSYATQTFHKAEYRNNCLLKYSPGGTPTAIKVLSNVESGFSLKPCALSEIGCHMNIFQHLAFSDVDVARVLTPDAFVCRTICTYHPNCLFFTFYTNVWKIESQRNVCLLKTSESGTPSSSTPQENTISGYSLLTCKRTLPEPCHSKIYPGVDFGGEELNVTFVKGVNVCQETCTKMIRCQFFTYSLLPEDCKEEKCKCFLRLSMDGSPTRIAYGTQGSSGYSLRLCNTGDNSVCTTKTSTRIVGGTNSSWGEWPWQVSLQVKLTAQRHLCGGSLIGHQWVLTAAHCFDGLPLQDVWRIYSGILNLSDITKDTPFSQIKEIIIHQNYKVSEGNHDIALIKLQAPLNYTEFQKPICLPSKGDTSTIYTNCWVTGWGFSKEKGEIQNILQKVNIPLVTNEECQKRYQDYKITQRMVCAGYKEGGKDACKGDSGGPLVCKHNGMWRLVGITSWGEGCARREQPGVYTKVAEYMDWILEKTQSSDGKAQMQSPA

increase of HNE inhibitory activity compared to the reference compounds A and F [1]: 2-3 fold
SMILES: CCOC(=O)c1nn(C(=O)c2cccc(C)c2)c2ccc(OC(F)(F)F)cc12 [Compound 31g, 1-(3-Methylbenzoyl)-5-trifluoromethoxy-1H-indazole-3-carboxylic Acid Ethyl Ester]

period of maximal HNE inhibition (during the first x h) [2]: 4 h
SMILES: COC(=O)c1nn(C(=O)c2cccc(C)c2)c2ccc([N+](=O)[O-])cc12 [Compound 14b, 1-(3-Methylbenzoyl)-5-nitro-1H-indazole-3-carboxylic Acid Methyl Ester]

kallikrein inhibition (in words) [3]: inhibited kallikrein | time to recovery of HNE activity after treatment [2]: 1 to 2 h
SMILES: COC(=O)c1nn(C(=O)c2ccccc2)c2ccc([N+](=O)[O-])cc12 [Compound 14a, 1-Benzoyl-5-nitro-1H-indazole-3-carboxylic Acid Methyl Ester]

HNE inhibitory activity (in words) [1]: inactive
SMILES: COC(=O)c1nn(C(=O)c2cccc(C)c2)c2c([N+](=O)[O-])cccc12 [Compound 16, 1-(3-Methylbenzoyl)-7-nitro-1H-indazole-3-carboxylic Acid Methyl Ester]

urokinase inhibition (in words) [4]: no inhibitory activity | period of maximal HNE inhibition (during the first x h) [2]: 5 h | IC50 [1]: ~10 nM
SMILES: CCOC(=O)c1nn(C(=O)c2cccc(C)c2)c2ccc(NC(=O)C3CC3)cc12 [Compound 20f, 5-(Cyclopropanecarbonylamino)-1-(3-methylbenzoyl)-1H-indazole-3-carboxylic Acid Ethyl Ester]
chymotrypsin inhibition (in words) [5]: lowest activity for this enzyme

time after which compound was hydrolyzed almost completely [6]: 35 min | urokinase inhibition (in words) [4]: at micromolar concentrations | thrombin inhibition (in words) [7]: at micromolar concentrations
SMILES: Cc1cccc(C(=O)n2nc(C#N)c3ccccc32)c1 [Compound 5b, 1-(3-Methylbenzoyl)-1H-indazole-3-carbonitrile]

time to recovery of HNE activity after treatment [2]: 1 to 2 h
SMILES: CCOC(=O)c1nn(C(=O)c2ccsc2)c2ccc([N+](=O)[O-])cc12 [Compound 14h, 5-Nitro-1-(thiophene-3-carbonyl)-1H-indazole-3-carboxylic Acid Ethyl Ester]

period of maximal HNE inhibition (during the first x h) [2]: 4 h
SMILES: COC(=O)c1nn(C(=O)c2cccc(C)c2)c2cc([N+](=O)[O-])ccc12 [Compound 15, 1-(3-Methylbenzoyl)-6-nitro-1H-indazole-3-carboxylic Acid Methyl Ester]

period of maximal HNE inhibition (during the first x h) [2]: 4 h
SMILES: CCOC(=O)c1nn(C(=O)c2cccc(C)c2)c2ccc(NC(C)=O)cc12 [Compound 20a, 5-Acetylamino-1-(3-methylbenzoyl)-1H-indazole-3-carboxylic Acid Ethyl Ester]

increase of HNE inhibitory activity compared to the reference compounds A and F [1]: 2-3 fold
SMILES: CCOC(=O)c1nn(C(=O)c2ccccc2)c2ccc(OC)cc12 [Compound 31d, 1-Benzoyl-5-methoxy-1H-indazole-3-carboxylic Acid Ethyl Ester]
